# Test results published in patent EP4488279A1, “SUBSTITUTED HEXAHYDRO-2H-PYRAZINO[1,2-A]PYRAZIN-1(6H)-ONE DERIVATIVES AS ACTIVATORS OF HUMAN CASEINOLYTIC PROTEASE P (HSCLPP)” (Centro Atlantico del Medicamento S.A (Ceamed, S.A), priority 2023, dated 2025).
# Where two headings read alike, the source gives them in different places.
# How the values were obtained:
# MDA-MB-231 = test: MTT cell viability assay, MDA-MB-231; type: cell-based; conditions: Homo sapiens, MDA-MB-231 cells, 72 H, average of at least two independent experiments
# Protocol: This a human breast cancer cell line derived from a metastatic site from a person.
# (§1) Cell viability was assayed by measuring the mitochondrial reduction of the tetrazolium salt 3-(4,5-methyltiazol-2yl)-2,5diphenyl-tetrazolium bromide] (MTT) (Applichen; A2231,0010) [Mosmann T. J Immunol Methods. […] Oncogene. […] Cells were seeded at a density according to their exponential growth phase (normally 1000 to 5000/well). The cells were cultured at 37 °C in the dark in air containing 5% CO2. After 24h either vehicle (0.05% DMSO), or drug, was added to culture medium at the indicated concentrations (10 to 0,01microM). After another 72 h, MTT (0.3 mg/ml) was added to cells, followed by incubation for 2-4h at 37 °C in the dark. The medium was then removed, and the precipitated formazan was solubilized by the addition of DMSO (200 µL).
# Yeast - HsCIpP = test: Yeast growth inhibition screen, yeast without human ClpP (selectivity control); type: cell-based; conditions: Saccharomyces cerevisiae, read-out: Yeast - HsCIpP GI50
# Protocol: (§2) These cells contain mutants in YRS1, YRR1, PDR1 and PDR3 genes, which are involved in polydrug and pleiotropic resistance networks.
# (§3) The yeast (both HsCpIP+ and HsCIpP-) are incubated in petri dishes with YPD (Yeast extract peptone dextrose) at 25 °C overnight, after which a colony is isolated, suspended in a flask with fresh YPD and incubating again under the same conditions but with agitation. […] 100 µl of this solution was then placed into the appropriated wells of a standard 96-well plate. Stock solutions (DMSO, 10 mM) of the compounds to be tested are diluted in YPD to 2X of their final concentrations to be tested, and 100 µl added to the appropriate wells. 100 µl of YPD was added to wells designated as the negative control wells, while ONC206 (0.5 µM) was used as the positive control. Once all compounds were added to the plate, an initial T = 0 absorbance value was recorded at 600 Nm. The plate was then incubated at 25 °C with gentle shaking for 24 h. The plates can either be read at multiple time points using a TECAN Spark® Multimode Microplate Reader, or at the end of the experiment using a standard spectrophotometer.
# (§4) Table 2: Growth inhibition (GI50) values for compounds of the present invention in yeast containing HsCIpP, and yeast without HsCIpP.
# PANC1 = test: MTT cell viability assay, PANC1; type: cell-based; conditions: Homo sapiens, PANC-1, PANC1 cells, 72 H, average of at least two independent experiments
# Protocol: This a human cancer cell line derived from the pancreas of a person.
# as §1
# 4T1 = test: MTT cell viability assay, 4T1; type: cell-based; conditions: Mus musculus, read-out: IC50 4T1 48 H
# Protocol: This a mouse epithelial breast cancer cell line classified as being triple negative and mimics human breast cancer; stage IV.
# as §1, with “After another 72 h, MTT (0.3 mg/ml) was added to cells, followed by incubation for 2-4h at 37 °C in the dark.” left out
# DU-145 = test: MTT cell viability assay, DU-145; type: cell-based; conditions: Homo sapiens, DU-145 cells, 72 H, average of at least two independent experiments
# Protocol: This a human prostate cancer cell line derived from a metastatic site (brain) of a person.
# as §1
# Yeast + HsCIpP = test: Yeast growth inhibition screen, yeast expressing human ClpP; type: cell-based; conditions: Saccharomyces cerevisiae, 24 h, read-out: Yeast + HsCIpP GI50
# Excerpt: This technique allows to directionally assemble several DNA fragments into one single DNA piece. It is based on plasmid libraries that share the same DNA backbone but differ in the type of the insert. The assembly of the final cassette is based on the "Golden Gate Cloning" method. Human CLPP gene sequence (codon-optimized for yeast translation) was amplified with well-designed primers from a plasmid kindly provided by Dr. Michael David Tyers (University of Montreal). Once amplified, a MoClo reaction was performed to obtain the final integrative cassette. This cassette was composed as follows: • Type 1: ConLS 3' connector. • Type 2: TDH3 gene promoter (strong and constitutive expression). • Type 3: Amplified human CLPP gene. • Type 4: ADH1 gene terminator. • Type 5: ConR1 5' connector. • Type 6: LEU2 gene as selectable marker for yeast. • Type 7: 3' HO gene homology sequence for yeast integration. • Type 8a: KanR-ColE1 sequence for bacterial amplification and antibiotic resistance. • Type 8b: 5' HO gene homology sequence for yeast integration.
# Digestion patterns with several restriction enzymes were carried out to confirm the success of the MoClo system. An extra restriction enzyme reaction (Notl) was performed to linearize the DNA fragment and deplete the bacterial part.
# as §2
# Yeast cells were transformed with the linearized cassette and transformant colonies were selected on minimum media without leucine. Independent clones were checked by PCR and positive ones were stored at -80 °C until use.
# as §3, §4
# U2 OS = test: MTT cell viability assay, U2 OS; type: cell-based; conditions: Homo sapiens, U2OS, U2 OS cells, 72 H, average of at least two independent experiments
# Protocol: U2 OS [American Type Culture Collection (ATCC) reference number HTB-96]. This is a human bone cancer (a moderately differentiated sarcoma) cell derived from an osteosarcoma patient.
# as §1
# MDA-MB-231 cells = test: cells; conditions: for GI50 / CC50: Homo sapiens, MDA-MB-231, 72 h; for CC50: read-out: LC50; for Result / TGI50: MDA-MB-231 72 H, SRB; for Result: cytostatic or not; for TGI50: total growth inhibition concentration
# Protocol: In order to measure the cell population at the time zero (Tz) a plate of cells was stained with SRB 24 hours after seeding. The cell monolayers are fixed with cold 5% (w/v) trichloroacetic acid for 60 minutes at 4°C. The excess of trichloroacetic acid is removed by washing five times with distilled water. Sulforhodamine B (SRB) solution [50 µL at 0.4%(w/v) in 1% acetic acid] is added to each well and plates are incubated for 8 minutes at room temperature. The excess dye is removed by washing five times with 1% (v/v) acetic acid. The bound stain is subsequently solubilized with (100 µL) 10 mM trizma base and the absorbance is read on automated plate reader at a wavelength of 550 nm.
# Compounds at various concentrations were added to an identical cell-seeded (non-treated) plate and incubated at 37°C (5% CO2) for an additional […]. Cells were fixed and stained following the same protocol. The measurement of the cell population after 72 hours in the presence of the drug is (Ti). Several wells in the same plate were treated with the control vehicle.
# Using the absorbance measurements, time zero (Tz), control growth (C), and test growth in the present of the compound (Ti) the percentage growth inhibition is calculated as: • [(Ti-Tz)/(C-Tz)] x 100 for concentrations for which Ti >/= Tz • [(Ti-Tz)/Tz] x 100 for concentrations for which Ti <Tz
# These values were determined using GraphPad software v5 (San Diego, CA).
# [1] = yeast without HsCIpP, 24 h at 25 °C, absorbance at 600 nm
# [2] = 4T1 cells, 48 H, MTT, average of at least two independent experiments
SMILES,IC50 (MDA-MB-231) [nM],GI50 (Yeast - HsCIpP; [1]) [nM],IC50 (PANC1) [nM],IC50 (4T1; [2]) [nM],IC50 (DU-145) [nM],GI50 (Yeast + HsCIpP) [nM],IC50 (U2 OS) [nM],GI50 (MDA-MB-231 cells) [nM],CC50 (MDA-MB-231 cells) [nM],Result (MDA-MB-231 cells),TGI50 (MDA-MB-231 cells) [µM],GI50 (Yeast - HsCIpP; 24 h) [nM],"IC50 (4T1; 4T1, 48 h) [nM]"
N#Cc1cccc(CN2CCN3CCN(Cc4ccc(F)cc4)C(=O)C3C2)c1 (centres unmarked) [Compound 1],120,> 10000,195,103,200,150,220,–,–,–,–,–,–
N#Cc1cccc(CN2CCN3CCN(Cc4cccc(Cl)c4)C(=O)C3C2)c1 (centres unmarked) [Compound 2],145,> 10000,140,165,250,120,250,–,–,–,–,–,–
N#Cc1cccc(CN2CCN3CCN(Cc4ccc(Cl)cc4)C(=O)C3C2)c1 (centres unmarked) [Compound 3],< 100,> 10000,< 100,< 100,< 100,65,< 100,< 100,> 10000,Cytostatic,>10,–,–
O=C1C2CN(Cc3cccc(F)c3)CCN2CCN1Cc1ccc(F)cc1 (centres unmarked) [Compound 5],240,> 10000,250,190,300,140,400,–,–,–,–,–,–
O=C1C2CN(Cc3cccc(F)c3)CCN2CCN1Cc1ccc(Cl)cc1 (centres unmarked) [Compound 6],190,> 10000,190,150,250,60,300,–,–,–,–,–,–
O=C1C2CN(CCCCC(F)(F)F)CCN2CCN1Cc1ccc(F)cc1 (centres unmarked) [Compound 7],430,> 10000,330,340,500,2050,500,–,–,–,–,–,–
O=C1C2CN(CCCCC(F)(F)F)CCN2CCN1Cc1ccc(C(F)(F)F)cc1 (centres unmarked) [Compound 8],400,> 10000,350,310,–,1650,2000,–,–,–,–,–,–
O=C1C2CN(Cc3ccccc3)CCN2CCN1Cc1cccc(Cl)c1 (centres unmarked) [Compound 9],935,> 10000,830,930,1080,690,1140,–,–,–,–,–,–
O=C1C2CN(Cc3ccccc3)CCN2CCN1Cc1ccc(C(F)(F)F)cc1 (centres unmarked) [Compound 10],635,> 10000,640,650,640,180,1000,–,–,–,–,–,–
O=C1C2CN(Cc3ccccc3)CCN2CCN1Cc1ccc(F)cc1 (centres unmarked) [Compound 11],490,> 10000,600,515,410,620,800,–,–,–,–,–,–
N#Cc1cccc(CN2CCN3CCN(Cc4ccc(C(F)(F)F)cc4)C(=O)C3C2)c1 (centres unmarked) [Compound 12],< 100,> 10000,< 100,< 100,100,75,200,< 100,> 10000,Cytostatic,>10,–,–
"O=C1C2CN(Cc3ccc(C(F)(F)F)cc3)CCN2CCN1Cc1ccc(C(F)(F)F)cc1 (centres unmarked) [Compound 14, 8-(4-trifluoromethylbenzyl)-2-(4-(trifluoromethyl)benzyl)hexahydro-2H-pyrazino[1,2-a]pyrazin-1(6H)-one]",–,–,240,2220,–,2580,–,–,–,–,–,> 10000,–
"Cc1ccccc1CN1C(=O)C2=C(CCN(Cc3ccccc3)C2)N2CCN=C12 [ONC201, reference compound]",2280,–,1720,–,1710,–,4800,–,–,Cytostatic,>10,–,2220
